Experimental findings from ChEMBL document CHEMBL1146643, “Potential hypotensive agents: synthesis and hypotensive activity of oxime ethers derived from 1-naphthoxepines and related compounds” (2004) are described below.

Molecules are shown by their SMILES.

Holding throughout (type): functional
What all share (settings): route intravenous

Assay [1] deals with Felis catus. The assay can be described thus: Percent of maximum effect in anaesthetized cat at a dose of 1 mg/kg intravenously.
In assay [2] the test system is Felis catus. Put plainly: Percent of maximum effect in anaesthetized cat at a dose of 5 mg/kg intravenously.
Assay [3] concerns Felis catus. The assay can be described thus: Fall of blood pressure in anaesthetized cat at a dose of 1 mg/kg intravenously.
Assay [4] relates to Felis catus. The assay can be described thus: Fall of blood pressure in anaesthetized cat at a dose of 5 mg/kg intravenously.

`CC(C)NCC(O)COc1cccc2ccccc12` (stereo not drawn) [PROPRANOLOL]: the Max effect with Felis catus [1] is listed as 35%; in the assay with Felis catus [2], 41%. Further, the entries for the “Decrease in blood pressure” value in the assay with Felis catus [3] and with Felis catus [4] were 46 mmHg and 50 mmHg, respectively.

With `CC(C)NCC(O)CO/N=C1\CCCOc2c1ccc1ccccc21` (stereo not drawn), the Max effect with Felis catus [1] turned out to be 14%; in the assay with Felis catus [2] it was 88%. Also, the figures for the “Decrease in blood pressure” value in the assay on Felis catus [3] and with Felis catus [4] were 20 mmHg and 110 mmHg, respectively.

On to `CCCNCC(O)CO/N=C1\CCCOc2ccc3ccccc3c21` (stereo not drawn), for which the Max effect in the assay on Felis catus [1] and in the assay on Felis catus [2] was 17% in each case. Moreover, the “Decrease in blood pressure” value in the assay with Felis catus [3] was determined as 18 mmHg; with Felis catus [4], 16 mmHg.

Take `CCCNCC(O)CO/N=C1\CCCOc2c1ccc1ccccc21` (stereo not drawn): the results for the Max effect in the assay on Felis catus [1] and in the assay on Felis catus [2] were 21% and 50%, respectively. In addition, the “Decrease in blood pressure” value stood at 20 mmHg in the assay with Felis catus [3] and 60 mmHg in the assay on Felis catus [4].

Consider `CC(C)(C)NCC(O)CO/N=C1\CCCOc2c1ccc1ccccc21` (stereo not drawn), for which the Max effect with Felis catus [1] is reported as 40%; in the assay on Felis catus [2] it was 55%. Further, the “Decrease in blood pressure” value in the assay on Felis catus [3] is listed as 60 mmHg; with Felis catus [4], 80 mmHg.

Take `CC(C)NCC(O)CO/N=C1\CCCOc2ccc3ccccc3c21` (stereo not drawn): the Max effect is on record as 7% in the assay on Felis catus [1] and 70% in the assay with Felis catus [2]. For the same compound, the “Decrease in blood pressure” value is listed as 10 mmHg in the assay with Felis catus [3] and 80 mmHg in the assay on Felis catus [4].

Take `CC(C)(C)NCC(O)CO/N=C1\CCCOc2ccc3ccccc3c21` (stereo not drawn): the Max effect was 21% in the assay on Felis catus [1] and 41% with Felis catus [2]. Besides, the “Decrease in blood pressure” value in the assay on Felis catus [3] came to 18 mmHg; in the assay on Felis catus [4], 50 mmHg.
